Key:
[1] = biological target: Mitogen-activated protein kinase 14 (Homo sapiens, UniProt Q16539); assay: Inhibition of p38a (unknown origin) at 5.5 uM by Caliper Mobility Shift Assay
[2] = biological target: Protein kinase C theta type (Homo sapiens) (UniProt Q04759); assay: Inhibition of PRKCQ (unknown origin) at 5.5 uM by Caliper Mobility Shift Assay
[3] = biological target: Tyrosine-protein kinase JAK2 (Homo sapiens) (UniProt O60674); assay: Inhibition of JAK2 (unknown origin) at 5.5 uM by Caliper Mobility Shift Assay
Chain of Tyrosine-protein kinase JAK2 (Homo sapiens) (O60674 whole entry): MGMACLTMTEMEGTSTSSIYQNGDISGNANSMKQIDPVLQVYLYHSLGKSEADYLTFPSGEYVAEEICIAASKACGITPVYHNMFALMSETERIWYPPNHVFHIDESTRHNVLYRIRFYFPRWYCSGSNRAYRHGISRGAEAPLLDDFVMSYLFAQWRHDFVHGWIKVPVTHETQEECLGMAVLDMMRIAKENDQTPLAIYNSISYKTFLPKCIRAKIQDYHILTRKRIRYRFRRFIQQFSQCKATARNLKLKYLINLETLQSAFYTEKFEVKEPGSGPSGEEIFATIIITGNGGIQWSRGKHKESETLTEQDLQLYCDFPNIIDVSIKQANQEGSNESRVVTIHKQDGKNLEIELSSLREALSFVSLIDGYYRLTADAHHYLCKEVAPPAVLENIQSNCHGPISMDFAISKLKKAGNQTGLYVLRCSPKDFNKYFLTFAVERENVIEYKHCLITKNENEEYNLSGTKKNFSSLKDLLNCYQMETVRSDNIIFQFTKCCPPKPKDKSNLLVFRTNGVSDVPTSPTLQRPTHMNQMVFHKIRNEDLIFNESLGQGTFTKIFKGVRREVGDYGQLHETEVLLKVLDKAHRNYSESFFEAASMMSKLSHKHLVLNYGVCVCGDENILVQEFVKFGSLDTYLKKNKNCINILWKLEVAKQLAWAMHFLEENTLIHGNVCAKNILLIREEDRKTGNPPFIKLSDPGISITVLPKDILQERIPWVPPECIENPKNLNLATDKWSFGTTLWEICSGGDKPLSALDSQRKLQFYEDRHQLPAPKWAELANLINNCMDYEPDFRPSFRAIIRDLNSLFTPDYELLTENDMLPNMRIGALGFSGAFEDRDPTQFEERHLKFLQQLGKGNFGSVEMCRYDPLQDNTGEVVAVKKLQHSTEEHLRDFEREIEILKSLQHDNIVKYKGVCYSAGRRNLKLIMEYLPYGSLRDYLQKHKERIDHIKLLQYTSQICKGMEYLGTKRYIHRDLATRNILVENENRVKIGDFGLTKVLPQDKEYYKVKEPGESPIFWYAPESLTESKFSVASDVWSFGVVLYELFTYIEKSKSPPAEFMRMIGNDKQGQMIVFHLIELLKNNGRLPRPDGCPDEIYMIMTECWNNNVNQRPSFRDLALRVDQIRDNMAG

[4] = biological target: T1, Activin receptor type-1 (Homo sapiens) (UniProt Q04771); assay: Inhibition of ACVR1 (ALK2) (unknown origin) at 5.5 uM by Caliper Mobility Shift Assay
T1 sequence (whole entry): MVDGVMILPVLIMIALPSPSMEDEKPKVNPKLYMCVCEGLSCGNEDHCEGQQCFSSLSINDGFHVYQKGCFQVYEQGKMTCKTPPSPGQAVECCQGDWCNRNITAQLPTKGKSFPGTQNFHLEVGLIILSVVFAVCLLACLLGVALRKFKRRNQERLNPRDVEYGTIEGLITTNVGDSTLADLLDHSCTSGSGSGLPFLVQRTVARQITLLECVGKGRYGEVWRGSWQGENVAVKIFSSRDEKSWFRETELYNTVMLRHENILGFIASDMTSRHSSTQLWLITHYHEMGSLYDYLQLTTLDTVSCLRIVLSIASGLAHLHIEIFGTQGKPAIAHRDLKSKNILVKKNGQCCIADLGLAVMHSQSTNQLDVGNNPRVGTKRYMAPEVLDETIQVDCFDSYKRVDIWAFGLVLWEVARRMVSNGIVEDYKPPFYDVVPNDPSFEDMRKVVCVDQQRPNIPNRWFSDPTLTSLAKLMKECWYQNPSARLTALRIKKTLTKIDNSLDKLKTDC

[5] = biological target: Receptor tyrosine-protein kinase erbB-4 (Homo sapiens) (UniProt Q15303); assay: Inhibition of ERBB4 (HER4) (unknown origin) at 5.5 uM by Caliper Mobility Shift Assay
Chain of Receptor tyrosine-protein kinase erbB-4 (Homo sapiens) (Q15303 whole entry, canonical isoform): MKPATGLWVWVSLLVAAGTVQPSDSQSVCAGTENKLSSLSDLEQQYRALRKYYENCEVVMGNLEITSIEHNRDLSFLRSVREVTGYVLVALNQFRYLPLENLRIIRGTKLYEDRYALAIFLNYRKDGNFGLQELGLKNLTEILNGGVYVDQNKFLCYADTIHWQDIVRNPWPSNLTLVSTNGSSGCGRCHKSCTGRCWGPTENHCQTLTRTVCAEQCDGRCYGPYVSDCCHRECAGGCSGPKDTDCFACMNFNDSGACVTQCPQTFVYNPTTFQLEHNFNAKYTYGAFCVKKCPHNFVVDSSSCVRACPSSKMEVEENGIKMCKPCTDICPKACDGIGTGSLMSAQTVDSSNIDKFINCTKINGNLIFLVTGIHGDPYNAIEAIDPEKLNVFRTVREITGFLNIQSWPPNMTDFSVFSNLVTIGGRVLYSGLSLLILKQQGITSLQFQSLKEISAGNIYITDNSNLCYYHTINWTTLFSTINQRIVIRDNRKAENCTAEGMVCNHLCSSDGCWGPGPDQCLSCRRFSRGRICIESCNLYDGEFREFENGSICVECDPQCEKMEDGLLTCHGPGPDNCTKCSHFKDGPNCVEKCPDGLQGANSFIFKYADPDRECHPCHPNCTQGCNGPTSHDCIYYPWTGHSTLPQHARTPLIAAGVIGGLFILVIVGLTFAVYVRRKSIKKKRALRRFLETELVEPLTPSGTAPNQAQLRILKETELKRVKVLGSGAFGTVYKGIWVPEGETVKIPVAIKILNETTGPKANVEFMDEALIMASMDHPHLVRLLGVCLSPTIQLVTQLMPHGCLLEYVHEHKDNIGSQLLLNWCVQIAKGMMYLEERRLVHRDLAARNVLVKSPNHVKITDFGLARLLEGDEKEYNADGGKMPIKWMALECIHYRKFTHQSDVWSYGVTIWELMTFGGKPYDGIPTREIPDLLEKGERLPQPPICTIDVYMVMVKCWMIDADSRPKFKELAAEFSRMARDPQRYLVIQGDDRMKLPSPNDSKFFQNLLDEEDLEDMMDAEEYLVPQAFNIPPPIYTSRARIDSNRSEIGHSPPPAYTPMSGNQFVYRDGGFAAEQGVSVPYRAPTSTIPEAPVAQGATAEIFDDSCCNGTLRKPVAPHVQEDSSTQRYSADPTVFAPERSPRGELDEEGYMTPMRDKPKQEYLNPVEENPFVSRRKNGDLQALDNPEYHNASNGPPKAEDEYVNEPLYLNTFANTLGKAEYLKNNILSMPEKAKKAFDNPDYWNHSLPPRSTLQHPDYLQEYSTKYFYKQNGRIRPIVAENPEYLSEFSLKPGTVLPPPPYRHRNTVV

[6] = biological target: Casein kinase I isoform gamma-3 (Homo sapiens) (UniProt Q9Y6M4); assay: Inhibition of CSNK1G3 (CK1) (unknown origin) at 5.5 uM by Caliper Mobility Shift Assay
[7] = biological target: Fibroblast growth factor receptor 3 (Homo sapiens) (UniProt P22607); assay: Inhibition of FGFR3 (unknown origin) at 5.5 uM by Caliper Mobility Shift Assay
Chain of Fibroblast growth factor receptor 3 (Homo sapiens) (P22607 23-806 limits assumed): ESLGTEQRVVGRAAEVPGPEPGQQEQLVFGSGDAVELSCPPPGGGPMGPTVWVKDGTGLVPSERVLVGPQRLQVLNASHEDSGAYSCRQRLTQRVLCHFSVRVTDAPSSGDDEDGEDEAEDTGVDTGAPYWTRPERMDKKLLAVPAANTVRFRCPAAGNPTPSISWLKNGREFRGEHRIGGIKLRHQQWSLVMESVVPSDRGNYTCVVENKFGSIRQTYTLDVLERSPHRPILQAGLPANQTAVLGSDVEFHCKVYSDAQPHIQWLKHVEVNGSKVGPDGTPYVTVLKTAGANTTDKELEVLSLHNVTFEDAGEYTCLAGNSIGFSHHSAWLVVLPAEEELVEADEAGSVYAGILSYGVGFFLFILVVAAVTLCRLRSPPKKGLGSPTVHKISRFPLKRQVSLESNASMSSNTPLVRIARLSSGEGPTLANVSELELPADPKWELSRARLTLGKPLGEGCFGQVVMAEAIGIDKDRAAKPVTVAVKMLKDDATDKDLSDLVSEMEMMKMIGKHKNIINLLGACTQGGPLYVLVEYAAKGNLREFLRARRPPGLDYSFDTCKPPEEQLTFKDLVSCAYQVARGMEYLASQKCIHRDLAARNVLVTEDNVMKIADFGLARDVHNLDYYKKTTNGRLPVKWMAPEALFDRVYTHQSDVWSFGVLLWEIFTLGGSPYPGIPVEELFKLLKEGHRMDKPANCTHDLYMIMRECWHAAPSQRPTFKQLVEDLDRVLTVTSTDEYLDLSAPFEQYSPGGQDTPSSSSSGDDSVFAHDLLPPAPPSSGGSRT

[8] = biological target: Serine/threonine-protein kinase WNK1 (Homo sapiens) (UniProt Q9H4A3); assay: Inhibition of WNK1 (unknown origin) at 5.5 uM by Caliper Mobility Shift Assay
[9] = biological target: Fibroblast growth factor receptor 1 (Homo sapiens) (UniProt P11362); assay: Inhibition of FGFR1 (unknown origin) at 5.5 uM by Caliper Mobility Shift Assay
Chain of Fibroblast growth factor receptor 1 (Homo sapiens) (P11362 22-822 limits assumed): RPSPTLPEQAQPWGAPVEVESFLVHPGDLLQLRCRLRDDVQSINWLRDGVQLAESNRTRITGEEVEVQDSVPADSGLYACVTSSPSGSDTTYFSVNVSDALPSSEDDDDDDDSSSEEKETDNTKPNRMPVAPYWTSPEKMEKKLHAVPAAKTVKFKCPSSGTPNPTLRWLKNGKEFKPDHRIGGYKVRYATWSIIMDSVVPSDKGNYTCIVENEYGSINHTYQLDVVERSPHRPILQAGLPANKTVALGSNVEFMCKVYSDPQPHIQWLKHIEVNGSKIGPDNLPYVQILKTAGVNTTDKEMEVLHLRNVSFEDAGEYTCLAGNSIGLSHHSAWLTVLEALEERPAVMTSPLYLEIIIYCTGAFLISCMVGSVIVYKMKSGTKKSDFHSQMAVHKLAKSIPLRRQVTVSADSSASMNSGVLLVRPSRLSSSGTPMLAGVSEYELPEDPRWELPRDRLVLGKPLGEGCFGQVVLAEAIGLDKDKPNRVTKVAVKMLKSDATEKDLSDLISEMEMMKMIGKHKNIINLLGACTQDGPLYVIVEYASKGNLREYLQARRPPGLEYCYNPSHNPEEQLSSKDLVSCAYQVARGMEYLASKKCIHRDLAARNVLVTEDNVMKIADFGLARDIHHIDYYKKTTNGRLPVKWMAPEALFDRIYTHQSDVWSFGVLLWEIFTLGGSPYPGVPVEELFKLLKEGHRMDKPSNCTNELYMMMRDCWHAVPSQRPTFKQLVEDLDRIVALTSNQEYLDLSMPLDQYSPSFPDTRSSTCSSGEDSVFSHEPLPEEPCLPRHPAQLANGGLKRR

[10] = biological target: T2, TGF-beta-activated kinase 1 and MAP3K7-binding protein 1 (Homo sapiens) (UniProt Q15750); assay: Inhibition of MAP3K7-TAB1 (unknown origin) at 5.5 uM by Caliper Mobility Shift Assay
T2 sequence (whole entry): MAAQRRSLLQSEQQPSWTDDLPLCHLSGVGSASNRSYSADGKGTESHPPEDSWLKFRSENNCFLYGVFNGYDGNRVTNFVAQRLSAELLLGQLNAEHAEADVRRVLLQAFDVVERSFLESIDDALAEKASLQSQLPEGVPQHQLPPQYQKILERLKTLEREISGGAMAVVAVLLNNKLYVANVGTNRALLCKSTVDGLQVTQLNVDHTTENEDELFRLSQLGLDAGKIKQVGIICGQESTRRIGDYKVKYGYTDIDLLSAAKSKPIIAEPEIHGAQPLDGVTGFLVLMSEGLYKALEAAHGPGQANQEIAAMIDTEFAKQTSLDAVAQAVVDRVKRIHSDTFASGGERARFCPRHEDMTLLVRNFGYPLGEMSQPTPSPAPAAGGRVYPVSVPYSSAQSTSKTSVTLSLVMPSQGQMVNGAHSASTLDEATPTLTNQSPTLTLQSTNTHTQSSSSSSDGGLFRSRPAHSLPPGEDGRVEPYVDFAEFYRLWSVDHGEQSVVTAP

[11] = biological target: Mitogen-activated protein kinase kinase kinase kinase 4 (Homo sapiens) (UniProt O95819); assay: Inhibition of MAP4K4 (unknown origin) at 5.5 uM by Caliper Mobility Shift Assay
Homo sapiens = species: Homo sapiens; assay: Selectivity ratio of IC50 for JNK3 (unknown origin) to IC50 for p38alpha (unknown origin)
[12] = biological target: T3, Interleukin-1 receptor-associated kinase 4 (Homo sapiens) (UniProt Q9NWZ3); assay: Inhibition of IRAK4 (unknown origin) at 5.5 uM by Caliper Mobility Shift Assay
T3 sequence (whole entry): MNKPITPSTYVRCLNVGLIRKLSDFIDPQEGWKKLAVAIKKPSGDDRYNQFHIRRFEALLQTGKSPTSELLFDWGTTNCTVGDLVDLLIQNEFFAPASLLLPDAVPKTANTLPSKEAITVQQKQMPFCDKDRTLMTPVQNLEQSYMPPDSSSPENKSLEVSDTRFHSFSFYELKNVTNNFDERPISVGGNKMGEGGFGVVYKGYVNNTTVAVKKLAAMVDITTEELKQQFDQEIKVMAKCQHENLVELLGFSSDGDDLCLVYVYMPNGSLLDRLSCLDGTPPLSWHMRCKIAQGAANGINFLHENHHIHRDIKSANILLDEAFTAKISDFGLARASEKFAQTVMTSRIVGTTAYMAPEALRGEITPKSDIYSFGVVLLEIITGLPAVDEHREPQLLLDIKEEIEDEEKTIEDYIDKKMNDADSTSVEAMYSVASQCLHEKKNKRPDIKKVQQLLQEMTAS

[13] = biological target: T4, Tyrosine-protein kinase ZAP-70 (Homo sapiens) (UniProt P43403); assay: Inhibition of ZAP70 (unknown origin) at 5.5 uM by Caliper Mobility Shift Assay
T4 sequence (whole entry): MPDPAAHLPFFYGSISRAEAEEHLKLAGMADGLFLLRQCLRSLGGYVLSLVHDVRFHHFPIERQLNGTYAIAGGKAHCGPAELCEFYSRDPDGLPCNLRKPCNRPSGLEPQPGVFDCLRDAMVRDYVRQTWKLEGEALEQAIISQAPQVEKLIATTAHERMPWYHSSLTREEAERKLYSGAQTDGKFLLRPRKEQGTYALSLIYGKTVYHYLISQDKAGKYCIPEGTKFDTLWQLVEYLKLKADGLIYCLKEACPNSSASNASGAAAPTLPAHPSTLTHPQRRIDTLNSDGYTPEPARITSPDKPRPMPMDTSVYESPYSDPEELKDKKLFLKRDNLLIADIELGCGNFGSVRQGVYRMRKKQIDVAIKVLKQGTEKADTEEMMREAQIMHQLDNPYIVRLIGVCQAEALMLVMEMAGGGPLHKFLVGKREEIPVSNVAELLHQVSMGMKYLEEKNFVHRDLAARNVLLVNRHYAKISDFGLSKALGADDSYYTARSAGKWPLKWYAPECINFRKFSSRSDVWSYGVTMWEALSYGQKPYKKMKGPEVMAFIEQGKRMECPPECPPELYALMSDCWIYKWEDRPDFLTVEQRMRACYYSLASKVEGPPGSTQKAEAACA

Chain of Protein kinase C theta type (Homo sapiens) (Q04759 whole entry, looked up): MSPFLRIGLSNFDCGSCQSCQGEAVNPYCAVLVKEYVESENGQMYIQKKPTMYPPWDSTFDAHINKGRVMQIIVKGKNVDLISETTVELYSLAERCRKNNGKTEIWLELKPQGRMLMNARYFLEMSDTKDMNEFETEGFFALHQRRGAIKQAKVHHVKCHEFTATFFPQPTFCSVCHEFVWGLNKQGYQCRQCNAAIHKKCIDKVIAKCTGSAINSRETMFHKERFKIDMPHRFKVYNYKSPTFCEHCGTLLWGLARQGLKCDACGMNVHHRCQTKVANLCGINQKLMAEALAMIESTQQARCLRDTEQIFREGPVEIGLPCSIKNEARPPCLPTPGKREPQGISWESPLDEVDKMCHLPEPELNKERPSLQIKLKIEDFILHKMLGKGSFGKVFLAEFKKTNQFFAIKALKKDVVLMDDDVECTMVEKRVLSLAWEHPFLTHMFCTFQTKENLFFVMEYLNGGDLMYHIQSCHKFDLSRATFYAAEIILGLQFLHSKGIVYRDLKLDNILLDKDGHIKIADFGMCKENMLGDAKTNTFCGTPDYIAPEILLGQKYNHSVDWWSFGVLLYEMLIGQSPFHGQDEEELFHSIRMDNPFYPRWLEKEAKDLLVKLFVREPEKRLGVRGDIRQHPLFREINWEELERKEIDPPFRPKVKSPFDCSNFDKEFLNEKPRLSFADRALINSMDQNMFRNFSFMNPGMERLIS
Chain of Mitogen-activated protein kinase 14 (Q16539 whole entry): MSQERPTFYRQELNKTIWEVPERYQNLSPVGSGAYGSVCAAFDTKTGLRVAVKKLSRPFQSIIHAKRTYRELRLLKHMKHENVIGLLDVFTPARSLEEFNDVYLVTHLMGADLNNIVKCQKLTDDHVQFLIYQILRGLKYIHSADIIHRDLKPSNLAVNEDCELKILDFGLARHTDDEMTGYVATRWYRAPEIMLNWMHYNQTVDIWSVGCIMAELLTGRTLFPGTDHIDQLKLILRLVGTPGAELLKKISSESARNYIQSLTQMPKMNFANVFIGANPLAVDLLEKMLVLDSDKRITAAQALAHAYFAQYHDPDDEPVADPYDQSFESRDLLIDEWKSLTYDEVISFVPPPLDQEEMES

Row | SMILES | inhibition [1] [%] | inhibition [2] [%] | inhibition [3] [%] | inhibition [4] [%] | inhibition [5] [%] | inhibition [6] [%] | inhibition [7] [%] | inhibition [8] [%] | inhibition [9] [%] | inhibition [10] [%] | inhibition [11] [%] | Ratio IC50 (Homo sapiens) | inhibition [12] [%] | inhibition [13] [%]
1 | CC(=O)Nc1cc(-c2c(-c3ccc(F)cc3)nc(Sc3cccc(I)n3)n2C2CCCCC2)ccn1 | < 50 | < 50 | < 50 | < 50 | < 50 | < 50 | < 50 | < 50 | < 50 | < 50 | < 50 | 4.3 | < 50 | < 50
2 | CC(=O)Nc1cc(-c2c(-c3ccc(F)cc3)nc(S/C=C\C(=O)O)n2C2CC2)ccn1 | < 50 | < 50 | < 50 | < 50 | < 50 | < 50 | < 50 | < 50 | < 50 | < 50 | < 50 | 0.7 | < 50 | < 50
3 | COC(Cn1c(SC2CCC(C(=O)O)CC2O)nc(-c2ccc(F)cc2)c1-c1ccnc(NC(C)=O)c1)OC (stereo not given) | < 50 | < 50 | < 50 | < 50 | < 50 | < 50 | < 50 | < 50 | < 50 | < 50 | < 50 | 14.9 | < 50 | < 50
4 | CC(=O)Nc1cc(-c2c(-c3ccc(F)cc3)nc(S/C=C\C(=O)O)n2C2CCCCC2)ccn1 | < 50 | < 50 | < 50 | < 50 | < 50 | < 50 | < 50 | < 50 | < 50 | < 50 | < 50 | 0.8 | < 50 | < 50
5 | CC(=O)Nc1cc(-c2c(-c3ccc(F)cc3)nc(S/C=C\C(=O)O)n2CC2CCCO2)ccn1 (racemic) | < 50 | < 50 | < 50 | < 50 | < 50 | < 50 | < 50 | < 50 | < 50 | < 50 | < 50 | 0.2 | < 50 | < 50

From ChEMBL document CHEMBL3393036, “Tetra-substituted pyridinylimidazoles as dual inhibitors of p38α mitogen-activated protein kinase and c-Jun N-terminal kinase 3 for potential treatment of neurodegenerative diseases” (J Med Chem, 2015)
